From patent publication US5906930A, “Para-nitrobenzyl esterases with enhanced activity in aqueous and nonaqueous media” (California Institute of Technology, priority 1998, dated 1999) come the findings set out here.

The target of assay [1] is T1, Bacillus subtilis para-nitrobenzyl esterase (pNB esterase), wild type 0-WT, SEQ. ID. NO. 2 (Bacillus subtilis, UniProt P37967).
T1 sequence (P37967 1-489 K23L/S59P/K95Q/N150D/S230A/G242S/K246R/S251A/A291S/V343A/K390E/L463V): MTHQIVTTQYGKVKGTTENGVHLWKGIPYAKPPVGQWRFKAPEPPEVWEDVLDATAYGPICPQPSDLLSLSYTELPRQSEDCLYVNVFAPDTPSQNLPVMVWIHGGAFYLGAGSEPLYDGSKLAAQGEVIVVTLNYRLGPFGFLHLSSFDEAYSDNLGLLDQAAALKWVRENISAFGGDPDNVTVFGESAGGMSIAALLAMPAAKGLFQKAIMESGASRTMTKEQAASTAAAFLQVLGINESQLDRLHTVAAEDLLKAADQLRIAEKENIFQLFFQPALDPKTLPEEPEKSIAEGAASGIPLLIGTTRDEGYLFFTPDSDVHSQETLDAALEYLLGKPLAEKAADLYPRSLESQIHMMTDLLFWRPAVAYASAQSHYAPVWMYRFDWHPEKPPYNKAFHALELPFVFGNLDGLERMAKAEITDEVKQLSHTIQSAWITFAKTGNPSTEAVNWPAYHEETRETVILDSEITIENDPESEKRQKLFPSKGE
As to the kind of experiment: Kinetic assays of purified pNB esterase (ester hydrolysis). The assay is classed as biochemical. More on the design: unit not given beside the values. The note with it: 0.1M PIPES pH 7.0, 30° C. How it is done:
(§1) Bacteria expressing seven pNB esterases, 0-WT (SEQ. ID. NO. 2), 1-1H9, 2-19E10, 3-10C4, 4-38B9, 4-43E7, and 4-54B9, were grown in one liter cultures and the enzymes were purified. These purified enzymes were assayed for their ability to hydrolyze the different ester substrates in the presence of various concentrations of DMF. FIGS. 8a, b and c show the specific reaction rates on pNPA as a function of pNPA substrate concentration for this series of evolved variants from the four generations of mutagenesis and screening. […] The wild type enzyme outperforms 1-1H9 in purely aqueous buffer (FIG. 8a). The actual screening, however, was performed in the presence of DMF, and in 15 and 30% DMF, 1-1H9 has higher specific activity towards pNPA than wild type (FIGS. 8b and 8c). Similar trends are seen for the remaining variants assayed on this substrate. […] In 30% DMF, wild type drops still further relative to the pNB esterase variants. Variants 4-38B9 and 4-43E7, presumably by, virtue of having been screened in DMF for four rounds of mutagenesis, are the best performers in 30% DMF.
(§2) DMF dramatically increases KM while also decreasing kcat. For the LCN substrates, the mutations accumulated during directed evolution mitigate the increased KM. The effects on kcat, however, are more prominent: kcat increases more than 9-fold from wild type to 4-54B9 in 15% DMF, while KM decreases by less than a factor of two on LCN-pNB. […] At substrate concentrations […], increased specific activity will result mainly from improvements in kcat. These improvements are obviously the most useful for enzymes intended to be used for transformations in high substrate concentrations.
(§3) Kinetic assays were performed on three substrates: pNPA, LCN-pNP, and p-nitrobenzyl loracarbef nucleus (LCN-pNB). For pNPA and LCN-pNP substrates, final concentrations varying from 0.0625 mM to 16 mM and 0, 15, and 30% DMF in 0.1M PIPES (Sigma), pH 7.0 were combined with equal volumes of enzyme samples. These samples were mixed simultaneously in a 96 well plate and monitored with the 96 well plate reader. The absorbance values were recorded, linearly regressed, and then used for calculating kinetic parameters. For the LCN-pNB substrate, final concentrations varying from 0.0156 mM to 8.0 mM and 0, 15 and 30% DMF in PIPES, pH 7.0 were combined with enzyme samples in a quartz cuvette and were measured in a spectrophotometer at 289 nm. All assays were measured in triplicate.

The target of assay [2] is T2, Bacillus subtilis para-nitrobenzyl esterase variant 4-43E7 (3-10C4 substitutions + L334V and one further substitution), SEQ. ID. NO. 12 (Bacillus subtilis, UniProt P37967, H322R/L144M/L334V/M358V/S94G/Y370F).
T2 sequence (P37967 1-489 K23L/S59P/S94G/K95Q/L144M/N150D/S230A/G242S/K246R/S251A/A291S/H322R/L334V/V343A/M358V/Y370F/K390E/L463V): T1 sequence (P37967 1-489 K23L/S59P/K95Q/N150D/S230A/G242S/K246R/S251A/A291S/V343A/K390E/L463V) with S94G, L144M, H322R, L334V, M358V, Y370F
Described as above. The assay is classed as biochemical. The following applies: 0.1M PIPES pH 7.0, 30° C. Also noted: unit not given beside the values. The method, then:
as §1, §2, §3

Setting [3] is: substrate p-nitrobenzyl loracarbef nucleus, 0% DMF.
The mark [4] stands for this setting: substrate p-nitrobenzyl loracarbef nucleus, 15% DMF.
Setting [5] is: substrate p-nitrophenyl loracarbef nucleus, 0% DMF.
The mark [6] stands for this setting: substrate p-nitrophenyl loracarbef nucleus, 15% DMF.
Where [7] appears, read: substrate p-nitrophenyl loracarbef nucleus, 30% DMF.

SMILES strings stand for the structures. Changes are numbered by the printed parent chain.

Turning to `NC1C(=O)N2C(C(=O)OCc3ccc([N+](=O)[O-])cc3)=C(Cl)CCC12` (stereo not shown) [p-nitrobenzyl loracarbef nucleus], the kcat in assay [1] (setting [3]) was found to be 1.64; in assay [1] (setting [4]), 0.54; in assay [2] (setting [3]) it was 9.13; in assay [2] (setting [4]) it was 3.02.

For the compound `NC1C(=O)N2C(C(=O)Oc3ccc([N+](=O)[O-])cc3)=C(Cl)CCC12` (stereo not shown) [p-nitrophenyl loracarbef nucleus], the kcat in assay [1] (setting [5]) amounted to 0.14; in assay [1] (setting [6]), 0.10; in assay [1] (setting [7]) it was 0.024; in assay [2] (setting [5]) it was 0.67; in assay [2] (setting [6]), 0.40; in assay [2] (setting [7]), 0.094.
